The test system of data set [1] is acetylated tubulin in B16F10 cells. Description: western blot for accumulation of acetylated tubulin in B16F10 cells. Format: cell-based.
The test system of data set [2] is B16F10. Description: verapamil. The settings on record: B16F10, verapamil at 100 µM, data not shown.
Data set [3] concerns the target HDAC1 (Homo sapiens, UniProt Q13547). Description: cell-free HDAC isoform inhibition assay, HDAC1.
The test system of data set [4] is A375. Description: antiproliferation study, A375 melanoma cell line. The settings on record: SAHA as control HDACi.
In data set [5] the test system is B16F10. As to the kind of experiment: antiproliferation study, B16F10 melanoma cell line.
For data set [6] the following is noted: phase II clinical trial; ref 3a; cited from earlier work.
[7] abbreviates: increasing drug concentrations (5–50 µM).

Sequence of HDAC1 (Q13547 whole entry, species assumed, canonical isoform): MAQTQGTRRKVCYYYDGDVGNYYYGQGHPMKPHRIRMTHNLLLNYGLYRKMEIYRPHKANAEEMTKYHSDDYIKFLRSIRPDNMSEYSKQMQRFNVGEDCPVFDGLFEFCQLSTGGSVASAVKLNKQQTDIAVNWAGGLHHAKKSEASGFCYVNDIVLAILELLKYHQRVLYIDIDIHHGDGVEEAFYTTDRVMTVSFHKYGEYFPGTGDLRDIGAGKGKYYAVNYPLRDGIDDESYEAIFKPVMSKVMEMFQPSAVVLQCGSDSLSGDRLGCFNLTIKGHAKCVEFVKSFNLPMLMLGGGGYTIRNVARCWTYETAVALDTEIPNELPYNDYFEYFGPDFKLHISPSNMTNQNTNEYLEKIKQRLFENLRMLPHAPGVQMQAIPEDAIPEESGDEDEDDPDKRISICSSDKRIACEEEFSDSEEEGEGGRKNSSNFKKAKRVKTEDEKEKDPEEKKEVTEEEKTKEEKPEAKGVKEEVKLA

Consider `O=C(CCCCCCC(=O)Nc1ccccc1)NO` [SAHA, reference compound], for which the “accumulation of acetylated tubulin” value in data set [1] (20 µM) is “significant accumulation of acetylated tubulin”.
In the case of `CCN(CC)CCNC(=O)c1ccc(-c2cn(CCCCCCC(=O)NO)nn2)cn1` [11b], in data set [2], the “effect of verapamil co-treatment on cytotoxic effect” value is “did not improve the cytotoxic effect”.
Consider `CCN(CC)CCNC(=O)c1ccc(-c2cn(CCCCCCC(=O)NO)nn2)cc1` [10a], for which the “effect of verapamil co-treatment on cytotoxic effect” value in data set [2] is recorded as “did not improve the cytotoxic effect”. In addition, the “selectivity for HDAC1 compared to HDAC6” value in data set [3] is listed as “about four-fold”. Besides, in data set [4], the “fold less active relative to SAHA against A375” value is reported as ~6 fold. In addition, the “fold less active relative to SAHA against B16F10” value in data set [5] (SAHA as control HDACi) is “about 3 fold”. In data set [1] (setting [7]), the “accumulation of acetylated tubulin” value is given as “gave a similar effect”.
On to `COc1ccc2cc(-c3cn(CCCCCC(=O)NO)nn3)ccc2c1` [7u, reference compound], for which, in data set [1] (20 µM), the “accumulation of acetylated tubulin” value is “significant accumulation of acetylated tubulin”.
On to `CCN(CC)CCNC(=O)c1ccc(C(=O)ONC(=O)CCCCCn2cc(-c3ccc4cc(OC)ccc4c3)nn2)cc1` [compound 14], for which the “growth inhibitory effect compared with compound 10a” value is “much more potent than compound 10a” in data set [5] (B16F10, at 50 µM (Fig. 4)) and “same level of potency as compound 10a” in data set [5] (B16F10, dosed at 25 µM (Fig. 4)). The “accumulation of acetylated tubulin” value in data set [1] (setting [7]) is on record as “increase in the level of acetylated tubulin in a concentration dependent manner”.
As to `CCN(CC)CCNC(=O)c1ccc(-c2cn(CCCCCC(=O)NO)nn2)cn1` [11a], in data set [3], the “selectivity for HDAC1 compared to HDAC6” value was “almost indistinguishable”.
Turning to `CCN(CC)CCNC(=O)c1ccc(I)cc1` [N-(2-(diethylamino)ethyl)-4-iodobenzamide], in data set [6], the “toxicity to the patients” value is on record as “little toxicity”.

The values are drawn from PMC5314971 (Bioorganic & medicinal chemistry letters, 2017).
